Here are results for 10 compounds from US20260258003A1, “SLACK-ACTIVATING COMPOUNDS AND THEIR MEDICAL USE” (Johann Wolfgang Goethe-Universität Frankfurt am Main, priority 2023, published 2026).

One may read the pEC50 as −log10 of the EC50, conventionally taken in molar units. Usually Emax stands for the size of the effect at its maximum, as opposed to the concentration needed.

The assay addresses T1, human Slack (Homo sapiens, UniProt Q5JUK3).
T1 construct: host or cells: HEK293
T1 sequence (Q5JUK3 1-1230): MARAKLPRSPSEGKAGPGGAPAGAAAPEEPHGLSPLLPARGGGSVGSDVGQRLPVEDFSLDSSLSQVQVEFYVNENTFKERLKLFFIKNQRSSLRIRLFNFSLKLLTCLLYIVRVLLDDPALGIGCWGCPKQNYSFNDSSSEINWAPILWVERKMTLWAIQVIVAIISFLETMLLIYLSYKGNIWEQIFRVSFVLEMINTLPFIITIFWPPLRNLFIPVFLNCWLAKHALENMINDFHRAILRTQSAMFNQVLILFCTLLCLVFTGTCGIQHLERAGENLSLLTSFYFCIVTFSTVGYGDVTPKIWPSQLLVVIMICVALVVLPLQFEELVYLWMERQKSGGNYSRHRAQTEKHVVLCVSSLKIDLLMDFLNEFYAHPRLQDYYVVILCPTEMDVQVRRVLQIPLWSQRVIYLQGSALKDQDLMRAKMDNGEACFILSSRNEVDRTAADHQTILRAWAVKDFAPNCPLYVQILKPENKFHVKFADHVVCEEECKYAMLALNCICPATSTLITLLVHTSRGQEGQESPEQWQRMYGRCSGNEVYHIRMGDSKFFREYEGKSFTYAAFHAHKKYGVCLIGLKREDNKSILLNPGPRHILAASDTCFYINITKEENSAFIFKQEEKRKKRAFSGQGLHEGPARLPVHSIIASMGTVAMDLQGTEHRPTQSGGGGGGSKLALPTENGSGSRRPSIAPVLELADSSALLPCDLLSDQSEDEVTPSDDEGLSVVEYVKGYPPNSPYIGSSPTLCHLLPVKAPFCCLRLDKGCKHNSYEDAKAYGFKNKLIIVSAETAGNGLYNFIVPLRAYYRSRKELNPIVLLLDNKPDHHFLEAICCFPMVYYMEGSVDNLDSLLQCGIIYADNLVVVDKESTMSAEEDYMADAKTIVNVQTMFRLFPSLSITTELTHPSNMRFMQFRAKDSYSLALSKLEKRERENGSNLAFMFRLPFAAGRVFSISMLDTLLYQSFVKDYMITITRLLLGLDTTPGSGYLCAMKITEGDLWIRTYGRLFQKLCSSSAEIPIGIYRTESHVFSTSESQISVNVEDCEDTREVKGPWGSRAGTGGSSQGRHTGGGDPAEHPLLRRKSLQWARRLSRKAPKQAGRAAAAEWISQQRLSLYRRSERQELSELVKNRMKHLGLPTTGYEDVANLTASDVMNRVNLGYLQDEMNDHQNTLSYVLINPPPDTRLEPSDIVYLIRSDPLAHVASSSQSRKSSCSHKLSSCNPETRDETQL
Nature of the assay: FluxOR potassium ion channel assay in HEK-Slack cells. Type of assay: cell-based. As to conditions: Na+ free buffer with 2 mM Ca2+, 2 mM Mg2+, 0.03% DMSO; for Emax: read-out: FluxOR assay EMAX (% relative to Loxapine). The protocol:
For that purpose, cultured HEK293 cells stably expressing human Slack (herein referred to as HEK-Slack cells) were incubated with compounds in a Na^+ free buffer to prevent compound-independent Slack activation by monovalent cations^7,19.
In detail, in these experiments, the Slack-activating efficacy and potency of the novel compounds was determined using a commercial FluxOR™ Potassium Ion Channel Assay (Invitrogen). HEK293 cells stably expressing human Slack (herein referred to as HEK-Slack cells) were plated at a density of 50,000 cells per well of a poly-D-lysine coated (75 μg/mL, Sigma Aldrich) 96-well, black-walled microplate with clear bottom (Greiner Bio-One) in DMEM containing 10% FBS and 1% penicillin/streptomycin 24 hours prior to assaying.
On the experiment day, cells were loaded with FluxOR™ dye according to the manufacturer's protocol. A Na^+-free assay buffer containing 140 mM choline chloride, 5 mM KCl, 2 mM CaCl2), 2 mM MgSO4, 10 mM HEPES, 5.55 mM glucose, adjusted to pH 7.4 with KOH, was used. To reduce background fluorescence all assay components were complemented by 10% BackDrop™ Background Suppressor (Invitrogen). […]
After washing steps, cells were incubated with compounds for 30 min at 37° C. All compounds were prepared as a 33.3 mM DMSO stock and diluted at the experimental day to a final concentration of 100, 50, 25, 12.5, 6.25, and 3.125 μM in assay buffer containing […] DMSO. […] After stimulation with Tl2SO4 solution, the fluorescence was measured over 100 s (excitation 485 nm, emission 525 nm) using an Infinite M200 Microplate Reader (Tecan). Assays run in triplicate and the ratio to baseline fluorescence was calculated for all time points. Dose-response curves comprising six concentrations were performed in triplets using fluorescence/fluorescenceBaseline ratios at the 100th second.

The mark [1] stands for this setting: mean with 95% confidence interval, read-out: FluxOR assay EC50.
[2] abbreviates: mean with 95% confidence interval.

pEC50: −log10 of the molar value. Read-outs that look alike come from different tables or passages of the source.

As to `CN1CCN(C2=Nc3ccccc3Oc3ccc(C(F)(F)F)cc32)CC1` [Compound 2, 11-(4-Methylpiperazin-1-yl)-2-(trifluoromethyl)dibenzo[b,f][1,4]oxazepine], the pEC50 under setting [1] is 5.20. Further, the Emax under setting [2] was found to be 114%.
Regarding `CN1CCCN(C2=Nc3ccccc3Oc3ccc(C(F)(F)F)cc32)CC1` [Compound 3, 11-(4-Methyl-1,4-diazepan-1-yl)-2-(trifluoromethyl)dibenzo[b,f][1,4]oxazepine], under setting [1], the negative-log EC50 (pEC50) was 5.49. Also, the maximum response (Emax) under setting [2] came to 63.1%.
As for `CN1CCN(C2=Nc3cc(F)ccc3Oc3ccc(C(F)(F)F)cc32)CC1` [Compound 4, 8-Fluoro-11-(4-methylpiperazin-1-yl)-2-(trifluoromethyl)dibenzo[b,f][1,4]oxazepine], the negative-log EC50 (pEC50) under setting [1] was 4.38. Under setting [2], the maximum response (Emax) was found to be 199%.
As for `OCCN1CCN(C2=Nc3ccccc3Oc3ccc(Cl)cc32)CC1` [Compound 5, 2-(4-(2-Chlorodibenzo[b,f][1,4]oxazepin-11-yl)piperazin-1-yl) ethan-1-ol], under setting [1], the pEC50 was 4.59. In addition, the maximal effect (Emax) under setting [2] was determined as 223%.
Turning to `O=C(O)COCCN1CCN(C2=Nc3ccccc3Oc3ccc(Cl)cc32)CC1` [Compound 6, 2-(2-(4-(2-Chlorodibenzo[b,f][1,4]oxazepin-11-yl)piperazin-1-yl)ethoxy) acetic acid], under setting [1], the pEC50 was 4.52. Besides, the Emax under setting [2] was 96.2%.
Turning to `OCCOCCN1CCN(C2=Nc3ccccc3Sc3ccc(Cl)cc32)CC1` [Compound 7, 2-(2-(4-(2-Chlorodibenzo[b,f][1,4]thiazepin-11-yl)piperazin-1-yl)ethoxy) ethan-1-ol], the pEC50 under setting [1] is 4.52. Further, the Emax under setting [2] amounted to 87.4%.
For the compound `O=C(O)COCCN1CCN(C2=Nc3ccccc3Oc3ccc(C(F)(F)F)cc32)CC1` [Compound 8, 2-(2-(4-(2-(Trifluoromethyl)dibenzo[b,f][1,4]oxazepin-11-yl)piperazin-1-yl)ethoxy) acetic acid], under setting [1], the pEC50 was 4.20. For the same compound, the maximum response (Emax) under setting [2] amounted to 177%.
For `O=C(O)COCCN1CCCN(C2=Nc3ccccc3Oc3ccc(C(F)(F)F)cc32)CC1` [Compound 9, 2-(2-(4-(2-(Trifluoromethyl)dibenzo[b,f][1,4]oxazepin-11-yl)-1,4-diazepan-1-yl)ethoxy) acetic acid], in that order: 4.29 and 186%.
As to `O=c1nc(CN2CCN(C3=Nc4ccccc4Oc4ccc(Cl)cc43)CC2)[nH][nH]1` [Compound 10, 5-((4-(2-Chlorodibenzo[b,f][1,4]oxazepin-11-yl)piperazin-1-yl)methyl)-1,2-dihydro-3H-1,2,4-triazol-3-one], the pEC50 under setting [1] was 4.66. In addition, the Emax under setting [2] was 120%.
Regarding `CN1CCN(C2=Nc3ccccc3Oc3ccc(Cl)cc32)CC1` [Loxapine, 2-chloro-11-(4-methylpiperazin-1-yl)dibenzo[b,f][1,4]oxazepine, reference compound], the pEC50 is, setting by setting: (first preliminary experiments, read-out: EC50 value in the first preliminary experiments) 4.63; under setting [1], 4.68. In addition, the Emax under setting [2] amounted to 100%.
